The record followed here is patent publication US5002948A, “3-[4-[4-substituted-1-piperazinyl]-1-butyl]-1H-2,3-dihydroindoles” (H. Lundbeck A/S, priority 1988, dated 1991).

Test [1] addresses T1, serotonin 5-HT1A receptors (Rattus norvegicus, UniProt P19327).
T1 construct: membranes from rat brain minus cerebellum; from tissue; host or cells: brain minus cerebellum of male Wistar (Mol:Wist) rats, membranes
T1 sequence (P19327 1-422): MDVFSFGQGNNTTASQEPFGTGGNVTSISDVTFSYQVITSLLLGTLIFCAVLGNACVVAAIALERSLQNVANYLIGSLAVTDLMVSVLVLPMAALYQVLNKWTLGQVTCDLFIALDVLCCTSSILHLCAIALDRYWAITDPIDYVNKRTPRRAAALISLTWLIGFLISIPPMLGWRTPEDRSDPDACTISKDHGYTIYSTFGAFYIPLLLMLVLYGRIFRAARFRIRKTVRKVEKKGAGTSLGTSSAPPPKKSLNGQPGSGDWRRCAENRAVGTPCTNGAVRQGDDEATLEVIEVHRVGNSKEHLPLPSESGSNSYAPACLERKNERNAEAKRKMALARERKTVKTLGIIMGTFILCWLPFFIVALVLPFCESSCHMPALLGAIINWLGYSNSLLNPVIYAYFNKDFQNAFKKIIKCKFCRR
The test can be described thus: Inhibition of 3H-8-OHDPAT binding to serotonin 5-HT1A receptors in rat brain in vitro. The conditions noted are these: 3H-8-OHDPAT 1 nM, rat brain membranes minus cerebellum, 37° C., 15 min; read-out: IC50 (3H 8-OH DPAT binding). The method, then: INHIBITION OF ^3 H-8-OHDPAT BINDING TO SEROTONIN 5-HT1A RECEPTORS IN A RAT BRAIN IN VITRO
By this method the inhibition by drugs of the binding of ^3 H-8-OHDPAT (1 nM) to serotonin 5-HT1A receptors in membranes from rat brain minus cerebellum is determined in vitro.
Male Wistar (Mol:Wist) rats (125-250 g) are sacrificed and the brain is dissected and weighed. The brain tissue minus cerebellum is homogenized (Ultra Turrax, 20 sec) in 10 ml of ice cold 50 mM Tris buffer pH 8.0 (at 25° C.) containing 120 mM NaCl, 4 mM CaCl2 and 4 mM MgCl2. The homogenate is centrifuged at 20,000 g for 10 min at 4° C. The pellet is homogenized in 10 ml of buffer and incubated at 37° C. for 10 min. The homogenate is centrifuged as above and the pellet is homogenized in 100 vol (w/v) ice cold buffer containing 10 μ M of parglyine.
Incubation tubes kept on ice in triplicate receive 100 μl of drug solution in water (or water for total binding) and 1000 μ l of tissue suspension (final tissue content corresponds to 10 mg original tissue). The binding experiment is initiated by addition of 100 μ l of ^3 H-8-OHDPAT (final concentration 1 nM) and by placing the tubes in a 37° C. water bath. After incubation for 15 min the samples are filtered under vacuum (0-50 mBar) through Whatman GF/F filters ([…]). The tubes are rinsed with 5 ml ice cold 0.9% NaCl which are then poured on the filters. Thereafter, the filters are washed with 2×5 ml 0.9% NaCl. The filters are placed in counting vials and 4 ml of appropriate scintillation fluid (e.g. Picofluor™15) are added. After shaking for 1 h and storage 2 h in the dark the content of radioactivity is determined by liquid scintillation counting. Specific binding is obtained by subtracting the nonspecific binding in the presence of 10 μ M of 5-HT.
For determination of the inhibition of binding five concentrations of drugs covering 3 decades are used.
The IC50 -value is determined as the concentration, at which the binding is 50% of the total binding in control samples minus the nonspecific binding in the presence of 10 μM of 5-HT.
^3 H-8-OHDPAT from Amersham International plc. England. Specific activity approximately 200 Ci/mmol).

For test [2], the target named is T2, 5-HT1A (Rattus norvegicus, UniProt P19327).
T2 sequence (P19327 1-422): T1 sequence (P19327 1-422)
As to the kind of experiment: Inhibition of 5-methoxy-N,N-dimethyltryptamine (5-MeODMT) induced 5-HT syndrome in rats. The conditions noted are these: rat, sc. Format: in vivo, Male Wistar rats. Set-up: Male Wistar rats (Mol:Wist) weighing 170-240 g are used; from tissue; host or cells: whole living animal, male Wistar rats (Mol:Wist), s.c. dosing. From the text:
INHIBITION OF 5-METHOXY-N,N-[…] INDUCED 5-HT SYNDROME IN RATS
The so-called 5-HT syndrome is a characteristic behaviour pattern which is induced by 5-HT agonists with effects on 5-HT, possibly 5-HT1A receptors, although lack of specific antagonists make it difficult to evaluate specificity (Smith, L. M. and S. J. Peroutka, Pharmacol. Biochem. & Behaviour 24, 1513-1519, 1986; Tricklebank, M. et al., Eur. J. Pharmacol. 117, 15-24, 1985).
Male Wistar rats (Mol:Wist) weighing 170-240 g are used. Test substrate is injected subcutaneously 30 min. before 5-methoxy-N,N-dimethyltryptamine 5 mg/kg, s.c. Four rats are used for each dose. A control group pretreated with saline is included each test day. Ten, 15 and 20 min later the rats are observed for presence of serotonin (5-HT) syndrome: (1) forepaw treading ("piano playing"), (2) head weaving and (3) hindleg abduction. Further, flat motility is scored. Each part of the syndrome is scored as follows: marked effect (score 2), weak syndrome (score 1) and no effect (score 0). The scores of the three observation times are added. Thus the maximum obtainable score for four rats is 24. The effect of the test substance is expressed as per cent inhibition relative to the control group.
The per cent inhibition of the piano playing syndrome is used as the response, and ED50 values are calculated by log-prohibit analysis.

Test [3] addresses T2, 5-HT1A. As to the kind of experiment: Generalization to discriminative stimulus properties induced by 8-OHDPAT in rats (agonism). Set-up: from tissue; host or cells: whole living animal, male Wistar rats, s.c. dosing. The conditions noted are these: rat, sc, read-out: ED50, 8-OH DPAT cue agonism. Format: in vivo, Male Wistar rats. From the text:
GENERALIZATION TO DISCRIMINATIVE STIMULUS PROPERTIES INDUCED BY 8-OHDPAT IN RATS.
This test model is used to determine the agonist effects of a test compound on 5-HT1A receptors in vivo. A related method is described by Tricklebank, M. D., J. Neill, E. J. Kidd and J. R. Fozard, Eur. J. Pharmacol. 133, 37-56, 1987; Arnt, J., Pharmacology & Toxicology 64, 165-172, 1989.
The procedure is the same as for the antagonism test mentioned above, except that the test compound is substituted for 8-OHDPAT and injected s.c. usually 30 minutes or 45 minutes respectively before beginning of the test.
The per cent drug response obtained for each dose of test compound is used to calculate ED50 values by log-probit analysis.

For the compound `Oc1ccccc1N1CCN(CCCCC2CNc3ccccc32)CC1` (stereo not shown) [Compound 4a, 3-[4-[4-(2-hydroxyphenyl)-1-piperazinyl]-1-butyl]-1H-2,3-dihydroindole], the IC50 (as a rule, the concentration that gives 50% inhibition) in test [1] is 17 nM.
The same measure, in the same setting: under `Fc1ccc2c(c1)C(CCCCN1CCN(c3cccc4c3OCC4)CC1)CN2` (stereo not shown) [Compound 3m, 3-[4-[4-(2,3-dihydro-7-benzofuranyl)-1-piperazinyl]-1-butyl]-5-fluoro-1H-2,3-dihydroindole] stands 5.7 nM; under `c1cc2c(c(N3CCN(CCCCc4c[nH]c5ccccc45)CC3)c1)OCCO2` [Compound 2c, 3-[4-[4-(1,4-benzodioxan-5-yl)-1-piperazinyl]-1-butyl]-1H-indole], 5.7 nM; under `COc1ccccc1N1CCN(CCCCc2c[nH]c3ccc(F)cc23)CC1` [Compound 1a, 5-Fluoro-3-[4-[4-(2-methoxyphenyl)-1-piperazinyl]-1-butyl]-1 H-indole], 11 nM.
In the case of `Fc1ccc2[nH]cc(CCCCN3CCN(c4cccc5c4OCCO5)CC3)c2c1` [Compound 2d, 3-[4-[4-(1,4-benzodioxan-5-yl)-1-piperazinyl]-1-butyl]-5-fluoro-1H-indole], the IC50 in test [1] was found to be 3.7 nM.
`CC1(C)CC(=O)N(CCCCN2CCN(c3ncccn3)CC2)C(=O)C1` [gepirone, reference compound]: the ED50 (as a rule, the dose at which the effect has come halfway, by size or by number of responders) in test [2] was 32 µmol/kg; in test [3], 0.81 µmol/kg.
Turning to `CSc1ccccc1N1CCN(CCCCC2CNc3ccccc32)CC1` (stereo not shown) [Compound 3b, 3-[4-[4-(2-methylthiophenyl)-1-piperazinyl]-1-butyl]-1H-2,3-dihydroindole], the IC50 in test [1] was found to be 14 nM.
As to `COc1ccccc1N1CCN(CCCCC2CNc3ccc(Cl)cc32)CC1` (stereo not shown) [Compound 3e, 5-chloro-3-[4-[4-(2-methoxyphenyl)-1-piperazinyl]-1-butyl]-1H-2,3-dihydroindole], in test [1], the IC50 is 9.2 nM.
The same measure, in the same setting: under `COc1ccccc1N1CCN(CCCCC2CNc3cc(Cl)ccc32)CC1` (stereo not shown) [Compound 3f, 6-chloro-3-[4-[4-(2-methoxyphenyl)-1-piperazinyl]-1-butyl]-1H-2,3-dihydroindole] stands 5.8 nM; under `Fc1ccc2[nH]cc(CCCCN3CCN(c4cccc5c4OCC5)CC3)c2c1` [Compound 2e], 15 nM; under `COc1ccccc1N1CCN(CCCCc2c[nH]c3cc(Cl)ccc23)CC1` [Compound 1b, 6-Chloro-3-[4-[4-(2-methoxyphenyl)-1-piperazinyl]-1-butyl]-1H-indole], 10 nM.
As for `COc1ccccc1N1CCN(CCCCC2CNc3ccc(F)cc32)CC1` (stereo not shown) [Compound 3g, 5-fluoro-3-[4-[4-(2-methoxyphenyl)-1-piperazinyl]-1-butyl]-1H-2,3-dihydroindole], in test [1], the IC50 is 17 nM.
On the same count and under the same terms, under `COc1ccccc1N1CCN(CCCCC2C(=O)Nc3ccccc32)CC1` (stereo not shown) [Compound 8a, 3-[4-[4-(2-methoxyphenyl)-1-piperazinyl]-1-butyl]-1H-2,3-dihydroindol-2-on] stands 51 nM.
On the same count and under the same terms, under `CC(C)Oc1ccccc1N1CCN(CCCCC2CNc3ccccc32)CC1` (stereo not shown) [Compound 3d, 3-[4-[4-(2-isopropyloxyphenyl)-1-piperazinyl]-1-butyl]-1H-2,3-dihydroindole] stands 17 nM; under `COc1ccccc1N1CCN(CCCCC2CN(C)c3ccccc32)CC1` (stereo not shown) [Compound 6a, 3-[4-[4-(2-methoxyphenyl)-1-piperazinyl]-1-butyl]-1-methyl-1H-2,3-dihydroindole], 43 nM.
Take `COc1ccccc1N1CCN(CCCCC2CN(C(C)=O)c3ccccc32)CC1` (stereo not shown) [Compound 5a, 1-Acetyl-3-[4-[4-(2-methoxyphenyl)-1-piperazinyl]-1-butyl]-1H-2,3-dihydroindole]: in test [1], the IC50 came to 35 nM.
In the case of `COc1cccc(N2CCN(CCCCC3CNc4ccccc43)CC2)c1OC` (stereo not shown) [Compound 3h, 3-[4-[4-(2,3-dimethoxyphenyl)-1-piperazinyl]-1-butyl]-1H-2,3-dihydroindole], the IC50 in test [1] was determined as 90 nM.
The same measure, in the same setting: under `COc1ccccc1N1CCN(CCCCc2c[nH]c3ccccc23)CC1` [Compound 2a, 3-[4[4-(2-methoxyphenyl)-1-piperazinyl]-1-butyl]-1H-indole] stands 17 nM.
The same measure, in the same setting: under `COc1ccccc1N1CCN(CCCCc2n[nH]c3ccc(C(F)(F)F)cc23)CC1` [Compound 9a, 3-[4-[4-(2-methoxyphenyl)-1-piperazinyl]-1-butyl]-5-trifluoromethyl-1H-indazole] stands 8.6 nM; under `c1ccc2c(c1)NCC2CCCCN1CCN(c2cccc3c2OCCO3)CC1` (single isomer, unassigned; (-)) [Compound 7d, (-)-b 3-[4-[4-(1,4-benzodioxan-5-yl)-1-piperazinyl]-1-butyl]-1H-2,3-dihydroindole], 3.1 nM.
The same measure, in the same setting: under `Clc1ccc2c(c1)C(CCCCN1CCN(c3cccc4c3OCCO4)CC1)CN2` (stereo not shown) [Compound 3k, 3-[4-[4-(1,4-benzodioxan-5-yl)-1-piperazinyl]-1-butyl]-5-chloro-1H-2,3-dihydroindole] stands 7.6 nM.
As to `c1cc2c(c(N3CCN(CCCCc4c[nH]c5ccccc45)CC3)c1)OCC2` [Compound 2b, 3-[4-[4-(2,3-dihydro-7-benzofuranyl)-1-piperazinyl]-1-butyl]-1H-indole], the IC50 in test [1] was 14 nM.
Regarding `c1ccc2c(c1)NCC2CCCCN1CCN(c2cccc3c2OCCO3)CC1` (single isomer, unassigned; (+)) [Compound 7c, (+)-3-[4-[4-(1,4-benzodioxan-5-yl)-1-piperazinyl]-1-butyl]-1H-2,3-dihydroindole], the IC50 in test [1] was 3.5 nM.
Same read-out and setting: under `Fc1ccc2c(c1)C(CCCCN1CCN(c3cccc4c3OCCO4)CC1)CN2` (stereo not shown) [Compound 3l, 3-[4-[4-(1,4-benzodioxan-5-yl)-1-piperazinyl]-1-butyl]-5-fluoro-1H-2,3-dihydroindole] stands 4.4 nM.
